Patent US20180272034A1, “USE OF CSA COMPOUNDS TO PREVENT MICROBIAL BUILD-UP OR FOULING OF MEDICAL IMPLANTS” (BRIGHAM YOUNG UNIVERSITY, priority 2017, published 2018)

Columns and labels:
[1] = Pre-term lambs intubated with coated endotracheal tubes, tracheal mucosal integrity; format: in vivo
Excerpt: Pre-term lambs were intubated using endotracheal tubes (ETTs) including a coating having CSA-131. Tracheal mucosal integrity of the lambs was compared to the tracheal mucosal integrity of a control group (intubated with uncoated ETTs). […] FIG. 2 illustrates the histological appearance of tracheas of the premature lambs that were intubated for three days. […] An area of denuded epithelium (arrowhead), and accumulation of white blood cells (arrow) are highlighted.

Pseudomonas aeruginosa [2] = conditions: mixed-species biofilms grown 22 hours, 20 hours of treatment
Method: (§1) Several CSA compounds were tested against Pseudomonas aeruginosa and Staphylococcus aureus mixed-species biofilms grown for an initial 22 hours and subjected to 20 hours of treatment.

Staphylococcus aureus [3] = conditions: mixed-species biofilms grown 22 hours, 20 hours of treatment
Method: as §1

[4] = Duration of efficacy of silicone-based Foley catheter with CSA-131; conditions: hydrogel coating approximately 10 μm including CSA-131
Excerpt: A silicone-based Foley catheter was coated with a hydrogel coating of approximately 10 μm in thickness. The coating included CSA-131. The coating was initially shown to maintain efficacy for about 6-7 days. A silicone-based Foley catheter was formed using silicone mixed with an NDSA salt form of CSA-131.

[5] = test system: Staphylococcus aureus MRSA; assay: Log10 reduction, coated PVC endotracheal tube segments and media; format: cell-based; conditions: CSA-131 polymer coating about 39.4 μg/cm^2 vs uncoated, 24 hours
Method: (§2) Segments of polyvinyl chloride (PVC) endotracheal tubes measuring 3 cm in length were placed in wells of a 6 well plate. 7 ml of inoculum were placed in each well. Testing was repeated in triplicate for each test article. The samples were placed on a rotary shaker (110 revolutions per minute) and incubated at 37±2° C. for 24 hours. At the end of 24 hours the bacteria in the inoculum were characterized via serial dilution, plating, and counting. The endotracheal tube segment was also removed and neutralized. After neutralization, the adherent biofilm biomass was removed and characterized via serial dilution, plating, and counting.
(§3) As the number of viable organisms recovered from the treated catheters is expected to be low, a membrane filtration method provides an appropriate analysis for counting recovered organisms. The remaining recovery solution was filtered through a 0.45 μm filter membrane. Filters were placed on TSA/SDA/NA/TSBA plates and incubated at 37±2° C. and counted after sufficient incubation.
(§4) The log reduction is calculated by determining the Log10 difference between uncoated devices and associated media and coated devices (using a polymer coating including CSA-131 at about 39.4 μg/cm^2) and associated media. The log reduction is calculated as follows:
(§5) Log reduction(Media)=Control Log10(CFU/ml)−Test Log10(CFU/ml)
(§6) Log10(CFU/ml)=Log10(CFU/ml+1)
(§7) Log reduction(Device)=Control Log10(CFU/device)−Test Log10(CFU/device)
(§8) Log10(CFU/device)=Log10(CFU/device+1)

Pseudomonas aeruginosa [6] = assay: as above; format: cell-based; conditions: CSA-131 polymer coating about 39.4 μg/cm^2 vs uncoated, 24 hours
Method: as §2, §3, §4, §5, §6, §7, §8

Klebsiella pneumonia = assay: as above; format: cell-based; conditions: CSA-131 polymer coating about 39.4 μg/cm^2 vs uncoated, 24 hours
Method: as §2, §3, §4, §5, §6, §7, §8

Streptococcus Pneumoniae = assay: Broth microdilution MIC, HABP/VABP clinical isolates; format: cell-based; conditions: Streptococcus Pneumoniae (10)
Method: (§9) CSA-131 was tested in vitro against a set of clinical isolates representing bacterial species commonly associated with hospital-acquired bacterial pneumonia (HABP) or ventilator-associated bacterial pneumonia (VABP). Antimicrobial susceptibility testing for 74 clinical isolates was performed. Broth microdilution using frozen-form MIC panels consisted of three media types: cation-adjusted Mueller-Hinton broth (CA-HMB), CA-HMB supplemented with 2.5-5% lysed horse blood for S. pneumoniae and Haemophilus test media (HTM) for Haemophilus spp.

Haemophilus spp. = assay: as above; format: cell-based
Method: as §9

Enterobacteriaceae = assay: as above; format: cell-based; conditions: Enterobacteriaceae (22)
Method: as §9

[7] = test system: All (74) clinical isolates; assay: as above; format: cell-based
Method: as §9

Staphylococcus aureus [8] = assay: as above; format: cell-based; conditions: Staphylococcus aureus (10)
Method: as §9

Compound: CCCCCCCCCCCCNCCC[C@@H](C)[C@H]1CC[C@H]2[C@@H]3[C@H](OCCCN)C[C@@H]4C[C@H](OCCCN)CC[C@]4(C)[C@H]3C[C@H](OCCCN)[C@]12C.Cl.Cl.Cl.Cl [CSA-131]
- tracheal mucosal integrity vs control group (uncoated ETTs) ([1]; pre-term lambs intubated with ETTs coated with CSA-131 coating): markedly improved mucosal integrity
- histological appearance of trachea (FIG. 2, image b) ([1]; premature lambs intubated for three days, CSA-131 coated ETT): the epithelium is healthy and intact, and the subjacent connective tissue region is not inflamed
- MBC P. aeruginosa (Pseudomonas aeruginosa [2]): 3.125 µg/mL
- MIC P. aeruginosa (Pseudomonas aeruginosa [2]): 3.125 µg/mL
- MBC S. aureus (Staphylococcus aureus [3]): 1.56 µg/mL
- MIC S. aureus (Staphylococcus aureus [3]): 0.78 µg/mL
- time coating maintains efficacy [4]: 6 to 7 days
- Log10 Reduction Device ([5]; 399 (clinical)): 6.24
- Log10 Reduction Media ([5]; 399 (clinical)): 8.89
- Log10 Reduction Total ([5]; 399 (clinical)): 8.23
- Log10 Reduction Device ([5]; 456 (clinical)): 6.77
- Log10 Reduction Media ([5]; 456 (clinical)): 9.63
- Log10 Reduction Total ([5]; 456 (clinical)): 9.63
- Log10 Reduction Device ([5]; U of C #18 (clinical)): 5.92
- Log10 Reduction Media ([5]; U of C #18 (clinical)): 9.36
- Log10 Reduction Total ([5]; U of C #18 (clinical)): 8.44
- Log10 Reduction Device (Pseudomonas aeruginosa [6]; ATCC 10752 (clinical)): 7.32
- Log10 Reduction Media (Pseudomonas aeruginosa [6]; ATCC 10752 (clinical)): 9.86
- Log10 Reduction Total (Pseudomonas aeruginosa [6]; ATCC 10752 (clinical)): 9.58
- Log10 Reduction Device (Pseudomonas aeruginosa [6]; ATCC 27853): 7.58
- Log10 Reduction Media (Pseudomonas aeruginosa [6]; ATCC 27853): 9.15
- Log10 Reduction Total (Pseudomonas aeruginosa [6]; ATCC 27853): 8.62
- Log10 Reduction Device (Pseudomonas aeruginosa [6]; PA14 (clinical)): 5.81
- Log10 Reduction Media (Pseudomonas aeruginosa [6]; PA14 (clinical)): 7.24
- Log10 Reduction Total (Pseudomonas aeruginosa [6]; PA14 (clinical)): 7.00
- Log10 Reduction Device (Klebsiella pneumonia; 06-0140-M4505): 5.21
- Log10 Reduction Media (Klebsiella pneumonia; 06-0140-M4505): 9.49
- Log10 Reduction Total (Klebsiella pneumonia; 06-0140-M4505): 7.85
- Log10 Reduction Device (Klebsiella pneumonia; 4352 (clinical)): 4.91
- Log10 Reduction Media (Klebsiella pneumonia; 4352 (clinical)): 6.56
- Log10 Reduction Total (Klebsiella pneumonia; 4352 (clinical)): 7.70
- Log10 Reduction Device (Klebsiella pneumonia; ATCC 29011): 3.80
- Log10 Reduction Media (Klebsiella pneumonia; ATCC 29011): 6.76
- Log10 Reduction Total (Klebsiella pneumonia; ATCC 29011): 6.82
- MIC50 (Streptococcus Pneumoniae): 4 µg/mL
- MIC90 (Streptococcus Pneumoniae): 4 µg/mL
- No. of isolates at MIC 2 μg/ml (Streptococcus Pneumoniae): 0 (0%)
- No. of isolates at MIC 4 μg/ml (Streptococcus Pneumoniae): 10
- No. of isolates at MIC 8 μg/ml (Streptococcus Pneumoniae): 0
- cumulative % inhibited at 2 μg/ml (Streptococcus Pneumoniae): 0 (0%)
- cumulative % inhibited at 4 μg/ml (Streptococcus Pneumoniae): 100%
- cumulative % inhibited at 8 μg/ml (Streptococcus Pneumoniae): 100%
- MIC50 (Haemophilus spp.; Haemophilus spp. (10)): 8 µg/mL
- MIC90 (Haemophilus spp.; Haemophilus spp. (10)): 8 µg/mL
- No. of isolates at MIC 4 μg/ml (Haemophilus spp.; Haemophilus spp. (10)): 0 (0%)
- No. of isolates at MIC 8 μg/ml (Haemophilus spp.; Haemophilus spp. (10)): 10
- cumulative % inhibited at 2 μg/ml (Haemophilus spp.; Haemophilus spp. (10)): 0 (0%)
- cumulative % inhibited at 4 μg/ml (Haemophilus spp.; Haemophilus spp. (10)): 0 (0%)
- cumulative % inhibited at 8 μg/ml (Haemophilus spp.; Haemophilus spp. (10)): 100%
- No. of isolates at MIC 2 μg/ml (Haemophilus spp.; Haemophilus spp. (10): 8 H. influenza, 2 H. parainfluenzae): 0 (0%)
- MIC50 (Enterobacteriaceae): 4 µg/mL
- MIC90 (Enterobacteriaceae): 4 µg/mL
- No. of isolates at MIC 2 μg/ml (Enterobacteriaceae): 4
- No. of isolates at MIC 4 μg/ml (Enterobacteriaceae): 18
- No. of isolates at MIC 8 μg/ml (Enterobacteriaceae): 0
- cumulative % inhibited at 2 μg/ml (Enterobacteriaceae): 18.2%
- cumulative % inhibited at 4 μg/ml (Enterobacteriaceae): 100%
- cumulative % inhibited at 8 μg/ml (Enterobacteriaceae): 100%
- MIC50 [7]: 4 µg/mL
- MIC90 [7]: 8 µg/mL
- No. of isolates at MIC 2 μg/ml [7]: 23
- No. of isolates at MIC 4 μg/ml [7]: 40
- No. of isolates at MIC 8 μg/ml [7]: 11
- cumulative % inhibited at 2 μg/ml [7]: 31.1%
- cumulative % inhibited at 4 μg/ml [7]: 85.1%
- cumulative % inhibited at 8 μg/ml [7]: 100%
- MIC50 (Staphylococcus aureus [8]): 2 µg/mL
- MIC90 (Staphylococcus aureus [8]): 2 µg/mL
- No. of isolates at MIC 2 μg/ml (Staphylococcus aureus [8]): 10
- No. of isolates at MIC 4 μg/ml (Staphylococcus aureus [8]): 0
- No. of isolates at MIC 8 μg/ml (Staphylococcus aureus [8]): 0
- cumulative % inhibited at 2 μg/ml (Staphylococcus aureus [8]): 100%
- cumulative % inhibited at 4 μg/ml (Staphylococcus aureus [8]): 100%
- cumulative % inhibited at 8 μg/ml (Staphylococcus aureus [8]): 100%
